From patent US8772290B2, “Alpha-arylmethoxyacrylate derivative, preparation method thereof, and pharmaceutical composition containing same” (Oscotech Inc., priority 2010, dated 2014)

The compounds below were run on HIF (assay: Assay for inhibitory activity against HIF activity (HIF1 luciferase reporter cell line)). Conditions: Homo sapiens; HEK293 HIF1 reporter cell line, 1% oxygen, 6 hours, luciferase activity 50% inhibited.
Assay type: cell-based, human
From the text: In order to assay the compounds of the present invention for inhibitory activity against HIF activity, the HIF1 reporter plasmid (Panomics) that is designed to control the expression of luciferase by HIF was employed. The HIF1 reporter plasmid and the pTK-Hyg plasmid (Clontech), which carries a hygromycin resistant gene, were co-transfected into the HEK293 cell line (the Korean Cell Line Bank, KCLB No. 21573), derived from the human kidney, with the aid of Effectene transfection reagent (Qiagen). Then, the cells were cultured for 3 weeks on a medium containing 200 μg/mL hygromycin to select transformants resistant to hygromycin. The cell colonies derived from single cells were transferred to 24-well plates to secure a reporter cell line. The cells were seeded at a density of 4×10^4 cells/well into 96-well plates containing DMEM and incubated for 24 hours before treatment with the compounds of the present invention at a concentration of 25 μM, 5 μM, 1 μM, 200 nM, 40 nM, 8 nM, 1.6 nM, 320 pM, 64 pM, 12.8 pM, 2.56 pM, 512 fM, 102 fM, 20.4 fM, or an amount between any two concentrations above as shown in FIGS. 1A to 1C. Under 1% oxygen condition, the cells were incubated for 6 hours and then, the medium was removed. The cells were lyzed by incubation for 5 min with 100 μL of the mixture of Bright-Glo™ luciferase assay buffer and Bright-Glo™ luciferase assay substrate (Promega). The whole cell lysate was transferred to 96-well, white plates (PerkinElmer) and measured for luminescence using Victor™ 3 (PerkinElmer). From the luminescence measurements, IC50 (a concentration of the compound at which luciferase activity was 50% inhibited) was calculated using the GraphPad Prism™ 4 program. The results are summarized in Table 2 and illustrated in FIGS. 1A to 1C.

Row | SMILES | IC50 [nM]
1 | CO/C=C(/C(=O)OC)c1ccccc1COc1ccc(/C=N/O)cc1C [Compound 31, (E)-methyl 2-(2-((4-((E)-(hydroxyimino)methyl)-2-methylphenoxy)-methyl)phenyl)-3-methoxyacrylate] | 1730
2 | CCCO/N=C/c1ccc(OCc2ccccc2/C(=C\OC)C(=O)OC)c(C)c1 [Compound 32, (E)-methyl 2-(2-((2-methyl-4-((E)-(propoxyimino)methyl)phenoxy)-methyl)phenyl)-3-methoxyacrylate] | 20
3 | CO/C=C(/C(=O)OC)c1ccccc1COc1ccc(/C=N/OCc2ccccc2)cc1C [Compound 33, (E)-methyl 2-(2-((4-((E)-(benzyloxyimino)methyl)-2-methylphenoxy)-methyl)phenyl)-3-methoxyacrylate] | 210
4 | CO/C=C(/C(=O)OC)c1ccccc1COc1ccc(/C(C)=N/O)cc1OC [Compound 34, (E)-methyl 2-(2-((4-((E)-1-(hydroxyimino)ethyl)-2-methoxyphenoxy)-methyl)phenyl)-3-methoxyacrylate] | 4480
5 | CCCO/N=C(\C)c1ccc(OCc2ccccc2/C(=C\OC)C(=O)OC)c(OC)c1 [Compound 35, (E)-methyl 2-(2-((4-((E)-1-(propoxyimino)ethyl)-2-methoxyphenoxy)-methyl)phenyl)-3-methoxyacrylate] | 1920
6 | CO/C=C(/C(=O)OC)c1ccccc1COc1ccc(/C(C)=N/OCc2ccccc2)cc1OC [Compound 36, (E)-methyl 2-(2-((4-((E)-1-(benzyloxyimino)ethyl)-2-methoxyphenoxy)-methyl)phenyl)-3-methoxyacrylate] | 880
7 | CO/C=C(/C(=O)OC)c1ccccc1COc1cc(/C(C)=N/O)ccc1OC [Compound 37, (E)-methyl 2-(2-((5-((E)-1-(hydroxyimino)ethyl)-2-methoxyphenoxy)-methyl)phenyl)-3-methoxyacrylate] | 7220
8 | CO/C=C(/C(=O)OC)c1ccccc1COc1cc(/C(C)=N/OCc2ccccc2)ccc1OC [Compound 38, (E)-methyl 2-(2-((5-((E)-1-(benzyloxyimino)ethyl)-2-methoxyphenoxy)-methyl)phenyl)-3-methoxyacrylate] | 1670
9 | CO/C=C(/C(=O)OC)c1ccccc1COc1cc(/C=N/OCc2ccccc2)ccc1OC [Compound 39, (E)-methyl 2-(2-((5-((E)-(benzyloxyimino)methyl)-2-methoxyphenoxy)-methyl)phenyl)-3-methoxyacrylate] | 1410
10 | CCCOc1cc(C)cc(OCc2ccccc2/C(=C\OC)C(=O)OC)c1C [Compound 40, (E)-methyl 2-(2-((2,5-dimethyl-3-propoxyphenoxy)methyl)phenyl)-3-methoxyacrylate] | 12600
11 | CO/C=C(/C(=O)OC)c1ccccc1COc1cc(C)cc(OCc2ccccc2)c1C [Compound 41, (E)-methyl 2-(2-((3-(benzyloxy)-2,5-dimethylphenoxy)methyl)phenyl)-3-methoxyacrylate] | 6120
12 | CCCO/N=C(\C)c1ccc(OC)c(OCc2ccccc2/C(=C\OC)C(=O)OC)c1 [Compound 42, (E)-methyl 2-(2-((2-methoxy-5-((E)-1-(propoxyimino)ethyl)phenoxy)-methyl)phenyl)-3-methoxyacrylate] | 5070
13 | CCCO/N=C/c1ccc(OC)c(OCc2ccccc2/C(=C\OC)C(=O)OC)c1 [Compound 43, (E)-methyl 2-(2-((2-methoxy-5-((E)-(propoxyimino)methyl)phenoxy)-methyl)phenyl)-3-methoxyacrylate] | 960
14 | CO/C=C(/C(=O)OC)c1ccccc1COc1cc(/C(C)=N/OCCc2ccccc2)ccc1OC [Compound 44, (E)-methyl 2-(2-((2-methoxy-5-((E)-1-(phenylethoxyimino)ethyl)-phenoxy)methyl)phenyl)-3-methoxyacrylate] | 2180
15 | CO/C=C(/C(=O)OC)c1ccccc1COc1cc(/C=N/OCCc2ccccc2)ccc1OC [Compound 45, (E)-methyl 2-(2-((2-methoxy-5-((E)-1-(phenylethoxyimino)methyl)-phenoxy)methyl)phenyl)-3-methoxyacrylate] | 110
16 | CO/C=C(/C(=O)OC)c1ccccc1COc1cc(/C=N/Oc2ccccc2)ccc1OC [Compound 46, (E)-methyl 2-(2-((2-methoxy-5-((E)-1-(phenoxyimino)methyl)phenoxy)-methyl)phenyl)-3-methoxyacrylate] | 170
17 | CO/C=C(/C(=O)OC)c1ccccc1COc1cccc(/C=N/Oc2ccccc2)c1 [Compound 47, (E)-methyl 2-(2-((3-((E)-1-(phenoxyimino)methyl)phenoxy)methyl)-phenyl)-3-methoxyacrylate] | 30
18 | CO/C=C(/C(=O)OC)c1ccccc1COc1cc(/C(C)=N/Nc2ccccc2)ccc1OC [Compound 48, (E)-methyl 2-(2-((2-methoxy-5-((E)-1-(phenylhydrazono)ethyl)phenoxy)-methyl)phenyl)-3-methoxyacrylate] | 8580
19 | CCCO/N=C/c1cc(C)c(OCc2ccccc2/C(=C\OC)C(=O)OC)cc1C [Compound 49, (E)-methyl 2-(2-((2,5-dimethyl-4-((E)-(propoxyimino)methyl)phenoxy)-methyl)phenyl)-3-methoxyacrylate] | 10
20 | CO/C=C(/C(=O)OC)c1ccccc1COc1cc(C)c(/C=N/OCc2ccccc2)cc1C [Compound 50, (E)-methyl 2-(2-((4-((E)-(benzyloxyimino)methyl)-2,5-dimethylphenoxy)-methyl)phenyl)-3-methoxyacrylate] | 70
21 | CO/C=C(/C(=O)OC)c1ccccc1COc1cc(C)c(/C=N/OCCOc2ccccc2)cc1C [Compound 51, (E)-methyl 2-(2-((2,5-dimethyl-4-((E)-(2-phenoxyethoxyimino)methyl)-phenoxy)methyl)phenyl)-3-methoxyacrylate] | 20
22 | CO/C=C(/C(=O)OC)c1ccccc1COc1cc(C)c(/C=N/OCC2CO2)cc1C (stereo not drawn) [Compound 52, (E)-methyl 2-(2-((2,5-dimethyl-4-((E)-(oxirane-2-ylmethoxyimino)-methyl)phenoxy)methyl)phenyl)-3-methoxyacrylate] | 2250
23 | CO/C=C(/C(=O)OC)c1ccccc1COc1cc(C)c(/C=N/OCCN2CCCC2)cc1C [Compound 53, (E)-methyl 2-(2-((2,5-dimethyl-4-((E)-(2-(pyrrolidin-1-yl)ethoxyimino)-methyl)phenoxy)methyl)phenyl)-3-methoxyacrylate] | 6640
24 | CO/C=C(/C(=O)OC)c1ccccc1COc1cc(C)c(/C=N/OCCN2CCCCC2)cc1C [Compound 54, (E)-methyl 2-(2-((2,5-dimethyl-4-((E)-(2-(piperidin-1-yl)ethoxyimino)-methyl)phenoxy)methyl)phenyl)-3-methoxyacrylate] | 6630
25 | CO/C=C(/C(=O)OC)c1ccccc1COc1cc(C)cc(O)c1C [Compound 55, (E)-methyl 2-(2-((3-hydroxy-2,5-dimethylphenoxy)methyl)phenyl)-3-methoxyacrylate] | 3690
26 | CO/C=C(/C(=O)OC)c1ccccc1COc1cc(C)cc(OCCOc2ccccc2)c1C [Compound 56, (E)-methyl 2-(2-((2,5-dimethyl-3-(2-phenoxyethoxy)phenoxy)methyl)-phenyl)-3-methoxyacrylate] | 2140
27 | CO/C=C(/C(=O)OC)c1ccccc1COc1cc(/C(C)=N/OCc2ccc(C)cc2)ccc1OC [Compound 57, (E)-methyl 2-(2-((2-methoxy-5-((E)-1-(4-methylbenzyloxyimino)ethyl)-phenoxy)methyl)phenyl)-3-methoxyacrylate] | 3940
